# Experimental data reported in patent publication US20200017496A1 (priority 2017, published 2020).
# Where two headings read alike, the source gives them in different places.
# Assays:
# [1] = tested on: Citrobacter freundii (CFR) isolates; experiment: MIC of compounds alone and combined with antibacterials, broth microdilution (CLSI); format: cell-based; details: for MIC: Citrobacter freundii, ATB alone, read-out: MIC
# In short: (§1)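 Log-phase bacteria at a final 5·10^5 CFU/mL in cation-adjusted Mueller-Hinton broth were incubated 16-20 h at 35° C in ambient air with compound alone or with an antibacterial. MIC was the lowest concentration preventing visible growth; combination MIC of the antibacterial was read at each compound concentration.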
# [2] = tested on: Klebsiella pneumoniae (KPN) isolates; experiment: as above; format: cell-based
# In short: as §1
smiles,measurement,setting,value
"CC(C)(O/N=C(\C(=O)N[C@@H]1C(=O)N2C(C(=O)[O-])=C(C[n+]3ccccc3)CS[C@H]12)c1csc(N)n1)C(=O)O [CAZ, Ceftazidime]",MIC ATB in combination,"[1]; CFR UFR10, AF1 @ 4 μg/mL",<=0.25 μg/mL
same,MIC ATB in combination,"[1]; CFR UFR10, AF1 @ 8 μg/mL",<=0.25 μg/mL
same,MIC ATB in combination,"[1]; CFR UFR11, AF1 @ 4 μg/mL",8 µg/mL
same,MIC ATB in combination,"[1]; CFR UFR11, AF1 @ 8 μg/mL",0.5 µg/mL
same,MIC ATB in combination,"[1]; CFR UFR83, AF1 @ 4 μg/mL",32 µg/mL
same,MIC ATB in combination,"[1]; CFR UFR83, AF1 @ 8 μg/mL",8 µg/mL
same,MIC ATB in combination,"[1]; CFR UFR146, AF1 @ 4 μg/mL",4 µg/mL
same,MIC ATB in combination,"[1]; CFR UFR146, AF1 @ 8 μg/mL",2 µg/mL
same,MIC ATB in combination,"[1]; CFR UFR248, AF1 @ 4 μg/mL",<=0.25 μg/mL
same,MIC ATB in combination,"[1]; CFR UFR248, AF1 @ 8 μg/mL",<=0.25 μg/mL
same,MIC ATB in combination,"[1]; CFR UFR249, AF1 @ 4 μg/mL",<=0.25 μg/mL
same,MIC ATB in combination,"[1]; CFR UFR249, AF1 @ 8 μg/mL",<=0.25 μg/mL
same,MIC ATB in combination,"[1]; CFR UFR250, AF1 @ 4 μg/mL",0.5 µg/mL
same,MIC ATB in combination,"[1]; CFR UFR250, AF1 @ 8 μg/mL",<=0.25 μg/mL
same,MIC,"[1]; strain CFR UFR11 (TEM-1, OXA-1, OXA-48)",8 µg/mL
same,MIC,"[1]; strain CFR UFR146 (TEM-1, KPC-2)",32 µg/mL
same,MIC ATB in combination,"[1]; strain CFR UFR253, antibacterial combined with AF1 @ 4 μg/mL",4 µg/mL
same,MIC ATB in combination,"[1]; strain CFR UFR253, antibacterial combined with AF1 @ 8 μg/mL",2 µg/mL
same,MIC ATB in combination,"[1]; strain CFR UFR254, antibacterial combined with AF1 @ 4 μg/mL",0.5 µg/mL
same,MIC ATB in combination,"[1]; strain CFR UFR254, antibacterial combined with AF1 @ 8 μg/mL",<=0.25 μg/mL
same,MIC ATB in combination,"[2]; KPN 6299, AF1 @ 4 μg/mL",0.5 µg/mL
same,MIC ATB in combination,"[2]; KPN 6299, AF1 @ 8 μg/mL",<=0.25 μg/mL
same,MIC ATB in combination,"[2]; KPN 110376, AF1 @ 4 μg/mL",<=0.25 μg/mL
same,MIC ATB in combination,"[2]; KPN 110376, AF1 @ 8 μg/mL",<=0.25 μg/mL
same,MIC ATB in combination,"[2]; KPN 131119, AF1 @ 4 μg/mL",0.5 µg/mL
same,MIC ATB in combination,"[2]; KPN 131119, AF1 @ 8 μg/mL",<=0.25 μg/mL
same,MIC ATB in combination,"[2]; KPN 140513, AF1 @ 4 μg/mL",16 µg/mL
same,MIC ATB in combination,"[2]; KPN 140513, AF1 @ 8 μg/mL",2 µg/mL
same,MIC ATB in combination,"[2]; KPN 160143, AF1 @ 4 μg/mL",1 µg/mL
same,MIC ATB in combination,"[2]; KPN 160143, AF1 @ 8 μg/mL",<=0.25 μg/mL
same,MIC ATB in combination,"[2]; KPN 190128, AF1 @ 4 μg/mL",0.5 µg/mL
same,MIC ATB in combination,"[2]; KPN 190128, AF1 @ 8 μg/mL",<=0.25 μg/mL
same,MIC ATB in combination,"[2]; KPN 190270, AF1 @ 4 μg/mL",0.5 µg/mL
same,MIC ATB in combination,"[2]; KPN 190270, AF1 @ 8 μg/mL",<=0.25 μg/mL
same,MIC ATB in combination,"[2]; KPN 190425, AF1 @ 4 μg/mL",<=0.25 μg/mL
same,MIC ATB in combination,"[2]; KPN 190425, AF1 @ 8 μg/mL",<=0.25 μg/mL
same,MIC ATB in combination,"[2]; KPN 190551, AF1 @ 4 μg/mL",<=0.25 μg/mL
same,MIC ATB in combination,"[2]; KPN 190551, AF1 @ 8 μg/mL",<=0.25 μg/mL
same,MIC ATB in combination,"[2]; KPN 200047, AF1 @ 4 μg/mL",<=0.25 μg/mL
same,MIC ATB in combination,"[2]; KPN 200047, AF1 @ 8 μg/mL",<=0.25 μg/mL
same,MIC ATB in combination,"[2]; KPN 200327, AF1 @ 4 μg/mL",<=0.25 μg/mL
same,MIC ATB in combination,"[2]; KPN 200327, AF1 @ 8 μg/mL",<=0.25 μg/mL
same,MIC ATB in combination,"[2]; KPN 260251, AF1 @ 4 μg/mL",1 µg/mL
same,MIC ATB in combination,"[2]; KPN 260251, AF1 @ 8 μg/mL",<=0.25 μg/mL
same,MIC ATB in combination,"[2]; KPN 260252, AF1 @ 4 μg/mL",32 µg/mL
same,MIC ATB in combination,"[2]; KPN 260252, AF1 @ 8 μg/mL",8 µg/mL
same,MIC ATB in combination,"[2]; KPN 260376, AF1 @ 4 μg/mL",<=0.25 μg/mL
same,MIC ATB in combination,"[2]; KPN 260376, AF1 @ 8 μg/mL",<=0.25 μg/mL
same,MIC ATB in combination,"[2]; KPN 270077, AF1 @ 4 μg/mL",<=0.25 μg/mL
same,MIC ATB in combination,"[2]; KPN 270077, AF1 @ 8 μg/mL",<=0.25 μg/mL
same,MIC ATB in combination,"[2]; KPN 700603, AF1 @ 4 μg/mL",1 µg/mL
same,MIC ATB in combination,"[2]; KPN 700603, AF1 @ 8 μg/mL",<=0.25 μg/mL
same,MIC ATB in combination,"[2]; KPN ARA, AF1 @ 4 μg/mL",<=0.25 μg/mL
same,MIC ATB in combination,"[2]; KPN ARA, AF1 @ 8 μg/mL",<=0.25 μg/mL
same,MIC ATB in combination,"[2]; KPN BAA-1898, AF1 @ 4 μg/mL",1 µg/mL
same,MIC ATB in combination,"[2]; KPN BAA-1898, AF1 @ 8 μg/mL",<=0.25 μg/mL
same,MIC ATB in combination,"[2]; KPN LIB, AF1 @ 4 μg/mL",<=0.25 μg/mL
same,MIC ATB in combination,"[2]; KPN LIB, AF1 @ 8 μg/mL",<=0.25 μg/mL
same,MIC ATB in combination,"[2]; KPN UFR22_O, AF1 @ 4 μg/mL",<=0.25 μg/mL
same,MIC ATB in combination,"[2]; KPN UFR22_O, AF1 @ 8 μg/mL",<=0.25 μg/mL
same,MIC ATB in combination,"[2]; KPN UFR23, AF1 @ 4 μg/mL",<=0.25 μg/mL
same,MIC ATB in combination,"[2]; KPN UFR23, AF1 @ 8 μg/mL",<=0.25 μg/mL
same,MIC ATB in combination,"[2]; KPN UFR24, AF1 @ 4 μg/mL",1 µg/mL
same,MIC ATB in combination,"[2]; KPN UFR24, AF1 @ 8 μg/mL",0.5 µg/mL
same,MIC ATB in combination,"[2]; KPN UFR25, AF1 @ 4 μg/mL",0.5 µg/mL
same,MIC ATB in combination,"[2]; KPN UFR25, AF1 @ 8 μg/mL",<=0.25 μg/mL
same,MIC ATB in combination,"[2]; KPN UFR27, AF1 @ 4 μg/mL",4 µg/mL
same,MIC ATB in combination,"[2]; KPN UFR27, AF1 @ 8 μg/mL",0.5 µg/mL
same,MIC ATB in combination,"[2]; KPN UFR28, AF1 @ 4 μg/mL",<=0.25 μg/mL
same,MIC ATB in combination,"[2]; KPN UFR28, AF1 @ 8 μg/mL",<=0.25 μg/mL
same,MIC ATB in combination,"[2]; KPN UFR65, AF1 @ 4 μg/mL",2 µg/mL
same,MIC ATB in combination,"[2]; KPN UFR65, AF1 @ 8 μg/mL",<=0.25 μg/mL
same,MIC ATB in combination,"[2]; KPN UFR66, AF1 @ 4 μg/mL",8 µg/mL
same,MIC ATB in combination,"[2]; KPN UFR66, AF1 @ 8 μg/mL",<=0.25 μg/mL
same,MIC ATB in combination,"[2]; KPN UFR67, AF1 @ 4 μg/mL",16 µg/mL
same,MIC ATB in combination,"[2]; KPN UFR67, AF1 @ 8 μg/mL",4 µg/mL
same,MIC ATB in combination,"[2]; KPN UFR68, AF1 @ 4 μg/mL",4 µg/mL
same,MIC ATB in combination,"[2]; KPN UFR68, AF1 @ 8 μg/mL",1 µg/mL
same,MIC ATB in combination,"[2]; KPN UFR76, AF1 @ 4 μg/mL",16 µg/mL
same,MIC ATB in combination,"[2]; KPN UFR76, AF1 @ 8 μg/mL",16 µg/mL
